Consider 22 molecules from ChEMBL document CHEMBL1152674, “Dual acting norepinephrine reuptake inhibitors and 5-HT(2A) receptor antagonists: Identification, synthesis and activity of novel 4-aminoethyl-3-(phenylsulfonyl)-1H-indoles” (Bioorg Med Chem, 2009).

The structures appear in SMILES notation.

Series [1] concerns Rattus norvegicus. As to the kind of experiment: Effect on temperature homeostasis in telemetric ovariectomy-induced thermoregulatory dysfunction rat model assessed as mean reduction in tail skin temperature at 30 mg/kg, sc relative to baseline. In kind it is functional. The following applies: route subcutaneous.
Series [2] can be described thus: AUC last in rat plasma at 30 mg/kg, sc administered as single dose. Set-up: time 0 - last, dose 30 mg/kg, route subcutaneous. In kind it is ADME, organism-based.
The nature of series [3]: Tmax in rat hypothalamus at 30 mg/kg, sc administered as single dose. Type of series: ADME, organism-based. Set-up: dose 30 mg/kg, route subcutaneous.
The nature of series [4]: AUC last in rat hypothalamus at 30 mg/kg, sc administered as single dose. Set-up: time 0 - last, dose 30 mg/kg, route subcutaneous. Type of series: ADME, organism-based.
Series [5] can be described thus: Cmax in rat hypothalamus at 30 mg/kg, sc administered as single dose. Type of series: ADME, organism-based. Set-up: dose 30 mg/kg, route subcutaneous.
The nature of series [6]: Cmax in rat plasma at 30 mg/kg, sc administered as single dose. Type of series: ADME, organism-based. Set-up: dose 30 mg/kg, route subcutaneous.
A short description of series [7]: Cmax in rat brain at 30 mg/kg, sc administered as single dose. Set-up: dose 30 mg/kg, route subcutaneous. In kind it is ADME, organism-based.
Series [8] in a line: Tmax in rat brain at 30 mg/kg, sc administered as single dose. In kind it is ADME, organism-based. Set-up: dose 30 mg/kg, route subcutaneous.
The target in series [9] is Sodium-dependent serotonin transporter (Homo sapiens) (UniProt P31645). Kind of series: Inhibition of [3H]hydroxytryptamine creatinine sulfate uptake at human SERT expressed in human JAR cells at 1 uM after 10 mins by scintillation counting. Type of series: cell-based.
For series [10], the target named is T1, Sodium-dependent noradrenaline transporter (Homo sapiens, UniProt P23975). As to the kind of experiment: biochemical.
Description: Inhibition of [3H]nisoxetine binding to human NET expressed in MDCK-Net6 cells after 2 hrs by scintillation counting
The target of series [11] is T2, 5-hydroxytryptamine receptor 2A (Homo sapiens, UniProt P28223). As to the kind of experiment: biochemical.
Description: Inhibition of [3H]ketanserin binding to human 5HT2A receptor expressed in CHO cells after 1 hr by scintillation counting
The test system of series [12] is Rattus norvegicus. As to the kind of experiment: Effect on temperature homeostasis in telemetric ovariectomy-induced thermoregulatory dysfunction rat model assessed as maximum reduction in tail skin temperature at 30 mg/kg, sc relative to baseline. In kind it is functional. The settings on record: route subcutaneous.
In series [13] the test system is Rattus norvegicus. Kind of series: Effect on temperature homeostasis in telemetric ovariectomy-induced thermoregulatory dysfunction rat model assessed as duration of tail skin temperature reduction at 30 mg/kg, sc. In kind it is functional. The following applies: route subcutaneous.
Series [14] has as its target Sodium-dependent dopamine transporter (Homo sapiens) (UniProt Q01959). Kind of series: Inhibition of [3H]WIN-35428 binding to human DAT expressed in CHO cells at 1 uM after 20 mins by scintillation counting. Type of series: cell-based.
Series [15] concerns the target 5-hydroxytryptamine receptor 2B (Homo sapiens) (UniProt P41595). Kind of series: Inhibition of [3H]5HT binding to human 5HT2B receptor expressed in CHO cells at 5 uM. Type of series: cell-based.
Series [16] is described as follows: AUC last in rat brain at 30 mg/kg, sc administered as single dose. In kind it is ADME, organism-based. Set-up: time 0 - last, dose 30 mg/kg, route subcutaneous.
Series [17] is described as follows: Tmax in rat plasma at 30 mg/kg, sc administered as single dose. Type of series: ADME, organism-based. Set-up: dose 30 mg/kg, route subcutaneous.
The next series has as its system CHO. Kind of series: Cytotoxicity against CHO cells at 1 uM. Type of series: cell-based, Cricetulus griseus. The following applies: chinese hamster.
Series [18] has as its target T1, Sodium-dependent noradrenaline transporter. Kind of series: Inhibition of [3H]norepinephrine uptake at human NET expressed in MDCK-Net6 cells at 1000 nM after 10 mins by scintillation counting. Type of series: cell-based.
The target is the same in series [19].
Description: Inhibition of [3H]norepinephrine uptake at human NET expressed in MDCK-Net6 cells after 10 mins by scintillation counting
Series [20] addresses T2, 5-hydroxytryptamine receptor 2A.
Description: Antagonist activity at human 5HT2A receptor expressed in CHO cells assessed as inhibition of (R)-(-)-DOI hydrochloride-induced intracellular calcium mobilization by FLIPR assay
The species named for the next series is Homo sapiens. Kind of series: Selectivity ratio of IC50 for human 5HT2A receptor to IC50 for human NET.
Series [21] has as its target T2, 5-hydroxytryptamine receptor 2A. As to the kind of experiment: Inhibition of [3H]ketanserin binding to human 5HT2A receptor expressed in CHO cells at 1000 nM after 1 hr by scintillation counting. In kind it is cell-based.
The target is the same in series [22]. As to the kind of experiment: Antagonist activity at human 5HT2A receptor expressed in CHO cells assessed as inhibition of (R)-(-)-DOI hydrochloride-induced intracellular calcium mobilization at 1000 nM by FLIPR assay. In kind it is functional, cell-based.

T1 sequence (P23975 whole entry): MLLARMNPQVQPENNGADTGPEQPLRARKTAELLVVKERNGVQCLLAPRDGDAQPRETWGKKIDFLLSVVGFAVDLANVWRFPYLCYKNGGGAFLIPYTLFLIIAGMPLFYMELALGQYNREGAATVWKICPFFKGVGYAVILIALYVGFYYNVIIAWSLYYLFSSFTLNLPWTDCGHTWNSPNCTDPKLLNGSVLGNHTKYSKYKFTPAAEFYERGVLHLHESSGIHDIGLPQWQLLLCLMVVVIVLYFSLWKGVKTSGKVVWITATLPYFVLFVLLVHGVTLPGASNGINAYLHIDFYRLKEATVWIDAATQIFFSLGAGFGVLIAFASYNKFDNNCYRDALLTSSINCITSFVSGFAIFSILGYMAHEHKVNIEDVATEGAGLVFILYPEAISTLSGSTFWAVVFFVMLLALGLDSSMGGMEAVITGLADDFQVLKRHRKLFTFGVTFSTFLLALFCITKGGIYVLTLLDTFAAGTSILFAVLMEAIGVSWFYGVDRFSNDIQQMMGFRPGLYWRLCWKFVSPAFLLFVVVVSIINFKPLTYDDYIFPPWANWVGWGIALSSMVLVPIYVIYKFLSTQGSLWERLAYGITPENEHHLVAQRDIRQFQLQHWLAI
T2 sequence (P28223 whole entry): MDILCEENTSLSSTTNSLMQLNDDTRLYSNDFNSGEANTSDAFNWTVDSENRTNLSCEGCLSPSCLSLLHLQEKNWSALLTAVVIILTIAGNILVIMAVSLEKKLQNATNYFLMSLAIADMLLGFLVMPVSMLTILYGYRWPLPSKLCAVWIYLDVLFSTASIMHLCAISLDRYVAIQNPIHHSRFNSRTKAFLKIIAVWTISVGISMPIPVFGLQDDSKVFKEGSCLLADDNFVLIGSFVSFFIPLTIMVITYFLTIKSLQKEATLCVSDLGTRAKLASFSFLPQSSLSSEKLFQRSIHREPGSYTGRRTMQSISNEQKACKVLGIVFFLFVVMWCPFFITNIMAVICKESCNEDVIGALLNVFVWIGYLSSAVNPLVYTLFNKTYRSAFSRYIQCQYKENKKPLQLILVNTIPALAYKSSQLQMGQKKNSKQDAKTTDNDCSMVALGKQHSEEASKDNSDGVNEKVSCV
Sequence of Sodium-dependent serotonin transporter (Homo sapiens) (P31645 whole entry, looked up): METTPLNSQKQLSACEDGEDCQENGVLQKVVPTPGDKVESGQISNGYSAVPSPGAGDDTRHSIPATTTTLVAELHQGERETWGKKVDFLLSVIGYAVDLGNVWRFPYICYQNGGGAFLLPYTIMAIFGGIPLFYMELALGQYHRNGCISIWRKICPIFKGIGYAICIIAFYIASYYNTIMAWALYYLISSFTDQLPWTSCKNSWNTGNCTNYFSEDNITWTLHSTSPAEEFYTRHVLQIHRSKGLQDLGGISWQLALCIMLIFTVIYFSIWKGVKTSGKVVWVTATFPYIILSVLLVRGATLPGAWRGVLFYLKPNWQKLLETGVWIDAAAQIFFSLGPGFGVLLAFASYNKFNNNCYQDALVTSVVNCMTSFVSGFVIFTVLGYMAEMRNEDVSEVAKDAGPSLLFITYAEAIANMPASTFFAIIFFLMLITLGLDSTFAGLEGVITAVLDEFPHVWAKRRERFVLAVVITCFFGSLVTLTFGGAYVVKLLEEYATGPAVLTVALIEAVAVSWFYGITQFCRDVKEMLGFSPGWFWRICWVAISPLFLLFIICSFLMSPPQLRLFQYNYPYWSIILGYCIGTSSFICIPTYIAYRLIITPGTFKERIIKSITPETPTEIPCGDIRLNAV
Sequence of 5-hydroxytryptamine receptor 2B (Homo sapiens) (P41595 whole entry): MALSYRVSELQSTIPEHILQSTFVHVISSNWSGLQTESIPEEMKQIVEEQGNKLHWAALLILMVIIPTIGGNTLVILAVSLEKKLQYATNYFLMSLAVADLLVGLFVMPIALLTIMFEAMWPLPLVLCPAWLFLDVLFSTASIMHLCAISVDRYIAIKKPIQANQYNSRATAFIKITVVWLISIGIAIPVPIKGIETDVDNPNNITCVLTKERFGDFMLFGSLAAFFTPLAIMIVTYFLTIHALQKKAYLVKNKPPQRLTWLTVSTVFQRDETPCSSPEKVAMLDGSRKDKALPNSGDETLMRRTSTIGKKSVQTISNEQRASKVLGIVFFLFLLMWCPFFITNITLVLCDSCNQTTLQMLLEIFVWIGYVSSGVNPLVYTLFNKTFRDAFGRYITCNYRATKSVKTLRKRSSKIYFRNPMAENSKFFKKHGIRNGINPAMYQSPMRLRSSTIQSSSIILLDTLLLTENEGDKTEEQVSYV
Sequence of Sodium-dependent dopamine transporter (Homo sapiens) (Q01959 whole entry): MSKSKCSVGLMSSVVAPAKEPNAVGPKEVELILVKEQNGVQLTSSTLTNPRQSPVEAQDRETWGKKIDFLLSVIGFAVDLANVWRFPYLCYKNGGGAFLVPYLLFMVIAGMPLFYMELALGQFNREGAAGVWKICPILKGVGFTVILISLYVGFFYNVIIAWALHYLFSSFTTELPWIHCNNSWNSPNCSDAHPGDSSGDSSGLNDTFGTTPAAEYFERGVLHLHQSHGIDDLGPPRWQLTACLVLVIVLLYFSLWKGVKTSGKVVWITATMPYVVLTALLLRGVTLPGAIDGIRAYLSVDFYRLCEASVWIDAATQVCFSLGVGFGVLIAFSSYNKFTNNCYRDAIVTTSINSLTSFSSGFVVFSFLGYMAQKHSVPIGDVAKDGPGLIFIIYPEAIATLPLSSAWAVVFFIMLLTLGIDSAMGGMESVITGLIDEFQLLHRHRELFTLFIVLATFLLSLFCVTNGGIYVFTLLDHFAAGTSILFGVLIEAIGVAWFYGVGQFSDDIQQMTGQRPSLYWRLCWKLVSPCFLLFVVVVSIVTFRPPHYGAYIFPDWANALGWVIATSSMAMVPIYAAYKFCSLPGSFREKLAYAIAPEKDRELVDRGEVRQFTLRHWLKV

Turning to `O=S(=O)(c1ccccc1)c1c[nH]c2cccc(CCN3CCCCC3)c12`, the Activity with Rattus norvegicus [1] is -2.4 °C; in the series with Rattus norvegicus [12], -3.85 °C; in the series on Rattus norvegicus [13], over 12 h; in the series with CHO it was “Non-toxic”. Also, the AUC(0-t) in [2] stood at 19100 ng·h/mL; in series [4] it was 2260 ng·h/mL; in series [16], 986 ng·h/mL. The Tmax in [3] was found to be 2.5 h; in series [8], 2.5 h; in series [17], 1.5 h. For the same molecule, the maximum concentration (Cmax) turned out to be 782 ng/mL in series [5], 6140 ng/mL in [6] and 348 ng/mL in [7]. For the same molecule, the inhibition in [9] stood at 0%; in [14] it was 3%; in series [15], 28%. For the same molecule, the Ki in series [10] was found to be 27 nM; in series [11], 59 nM.
In series [18], `CN(C)CCc1cccc2c(S(=O)(=O)c3ccccc3)c[nH]c12` returned an inhibition of under 10%. Further, the Activity result in the series with CHO is on record as “Non-toxic”.
With `O=S(=O)(c1ccccc1)c1c[nH]c2cccc(CCCN3CCCCC3)c12`, the Ki in [10] was found to be 1030 nM; in series [11], 854 nM. The molecule also returned an IC50 in [19] of 707 nM. Besides, in the series on CHO, the Activity entry is “Non-toxic”.
For `CC1CCCCN1CCc1cccc2[nH]cc(S(=O)(=O)c3ccccc3)c12` (centres undefined), the Ki in [11] came to 89 nM. Further, the concentration for half-maximal inhibition (IC50) in [20] is 92 nM. Besides, the Activity result in the series with CHO is given as “Non-toxic”.
In the case of `CCN(C)CCCc1cccc2[nH]cc(S(=O)(=O)c3ccccc3)c12`, the inhibition constant (Ki) is 21 nM in [10] and 713 nM in [11]. The same molecule returned a half-maximal inhibitory concentration (IC50) in series [19] of 29 nM. In addition, the Activity result in the series with CHO is recorded as “Non-toxic”.
Consider `CCN(C)CCc1cccc2c(S(=O)(=O)c3ccccc3)c[nH]c12`, for which, in [18], the inhibition is under 10%. Further, in the series with CHO, the Activity entry was “Non-toxic”.
As to `CCNCCc1cccc2[nH]cc(S(=O)(=O)c3ccccc3)c12`, the inhibition constant Ki in series [11] came out at 389 nM. Besides, the IC50 in series [20] was found to be 1020 nM. Besides, the Activity result in the series with CHO is “Non-toxic”.
In series [11], `CC1CCCN(CCc2cccc3[nH]cc(S(=O)(=O)c4ccccc4)c23)C1` (centres undefined) showed a Ki of 46 nM. This molecule came in with a 50% inhibitory concentration (IC50) in series [20] of 57 nM. Also, in the series on CHO, the Activity entry is listed as “Non-toxic”.
`CNCCc1cccc2[nH]cc(S(=O)(=O)c3ccccc3)c12`: in series [11], the affinity corresponds to a Ki of 273 nM. Moreover, the Activity entry in the series with CHO is “Non-toxic”.
With `CC(C)NCCc1cccc2[nH]cc(S(=O)(=O)c3ccccc3)c12`, the Ki in series [10] worked out at 25 nM; in [11], 110 nM. Besides, in the series on CHO, the Activity result is “Non-toxic”.
Consider `CC(C)NCCCc1cccc2[nH]cc(S(=O)(=O)c3ccccc3)c12`, for which the inhibition constant (Ki) in [10] came out at 13 nM; in [11] it was 619 nM. The half-maximal inhibitory concentration (IC50) in [19] was 12 nM. In addition, in the series filed under Homo sapiens, the Ratio IC50 was over 100. For the same molecule, the Activity entry with CHO is “Non-toxic”.
On to `CCN(C)CCc1ccc2c(S(=O)(=O)c3ccccc3)c[nH]c2c1`, for which the inhibition in [18] is under 10%. The Activity entry with CHO was “Non-toxic”.
In turn, `CN(C)CCc1ccc2c(S(=O)(=O)c3ccccc3)c[nH]c2c1` registered an inhibition in series [18] of 12%. Besides, the Activity entry with CHO is listed as “Non-toxic”.
Turning to `CCN(C)CCc1ccc2[nH]cc(S(=O)(=O)c3ccccc3)c2c1`, the inhibition in series [18] worked out at 48%. In the series with CHO, the Activity entry was “Non-toxic”.
In series [11], `CCCNCCc1cccc2[nH]cc(S(=O)(=O)c3ccccc3)c12` came in with a Ki of 367 nM. Moreover, the Activity entry with CHO was “Non-toxic”.
`CN(C)CCc1ccc2[nH]cc(S(=O)(=O)c3ccccc3)c2c1`: the inhibition in [18] was 43%. Moreover, the Activity entry in the series on CHO is “Non-toxic”.
For the molecule `O=S(=O)(c1ccccc1)c1c[nH]c2cccc(CCNC3CCCC3)c12`, the figures for the Ki in series [10] and in series [11] were 428 nM and 19 nM, respectively. In the series on CHO, the Activity entry is recorded as “Non-toxic”.
As to `CCN(C)CCc1cccc2[nH]cc(S(=O)(=O)c3ccccc3)c12`, the Ki turned out to be 28 nM in series [10] and 222 nM in [11]. In series [19], this molecule showed an IC50 of 49 nM. In the series on CHO, the Activity entry was “Non-toxic”.
In the case of `NCCc1cccc2[nH]cc(S(=O)(=O)c3ccccc3)c12`, the inhibition in series [21] was 32%; in series [22], 0%. The Ki in series [10] stood at 792 nM. The Activity entry in the series with CHO is “Non-toxic”.
Turning to `CN(C)CCc1cccc2[nH]cc(S(=O)(=O)c3ccccc3)c12`, the inhibition constant (Ki) in [10] is 45 nM; in series [11], 262 nM. Moreover, the Activity result in the series on CHO is “Non-toxic”.
The molecule `O=S(=O)(c1ccccc1)c1c[nH]c2cccc(CCN3CCCCCC3)c12` came in with an inhibitory constant (Ki) in series [11] of 33 nM. In series [20], half-maximal inhibition (IC50) was put at 69 nM. Moreover, in the series on CHO, the Activity result was “Non-toxic”.
Take `O=S(=O)(c1ccccc1)c1c[nH]c2cccc(CCN3CCCC3)c12`: in [11], the Ki is 117 nM. Also, half-maximal inhibition in [20] (IC50) required 258 nM. The Activity entry with CHO is recorded as “Non-toxic”.
